US20020039746A1, “Methods for identifying peripheral benzodiazepine receptor binding agents” (priority 2000, published 2002)
“Also recorded” adds a separate entry of the source.

What was measured:
[1] = system: inducible PBzR overexpressing SH-SY5Y-derived cells (IPBR-1); experiment: apoptogen-driven caspase activation in tetracycline-inducible PBzR overexpressing SH-SY5Y-derived cells; assay type: cell-based
Experimental: (§1) Caspases are apoptosis-activated proteases, and caspase induction in cells is often indicative that the cells are undergoing programmed cell death (apoptosis). Apoptosis can be induced by a variety of compounds, including etoposide. S11 or vector control cells were plated at 30,000 cells/well in 96 well plates and grown for 20 hours. […] At this time, media was aspirated and caspase activity was measured by addition of 23 uM DEVD, a peptide that is fluorescent when cleaved by caspase 3, in PBS along with 0.03% digitonin. Fluorescence was measured in an Fmax™ 96-well plate reader (Molecular Devices, Sunnyvale, Calif.) using a kinetic assay. Total number of cells was determined using propidium iodide staining and used to normalize for total number of cells in each well.
The effect of tetracycline induced PBzR overexpression on apoptogen-driven (C2-ceramide, 80 μM, 8 hrs) caspase activation was examined in a selected, oligoclonal tetracycline-inducible PBzR overexpressing SH-SY5Y-derived cell line (FIG. 20). […] The caspase response also correlated with cell viability determinations (FIG. 22), consistent with presumed caspase roles in apoptotic cascades. […] Western blot analysis of IPBR-1 mitochondrial fractions isolated on metrizamide gradients and normalized on the basis of mitochondrial ETC Complex IV activity (as described above) confirmed a dramatic increase in PBzR expression. No discernible change in Bcl-2 expression levels, however, accompanied the induction of PBzR overexpression.

[2] = biological target: T1, peripheral benzodiazepine receptor (PBR, PBzR) (Homo sapiens, UniProt P30536); experiment: [3H]PK-11195 saturation binding to cell membranes
T1 construct: expressed in transfected cells; membranes
T1 sequence (P30536 whole entry): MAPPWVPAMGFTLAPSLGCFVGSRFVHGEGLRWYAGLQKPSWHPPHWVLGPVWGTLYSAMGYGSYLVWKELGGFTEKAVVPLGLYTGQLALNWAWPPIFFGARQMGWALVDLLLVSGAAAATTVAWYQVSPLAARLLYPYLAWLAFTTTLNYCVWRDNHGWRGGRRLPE

[3] = PK-11195 induced cell death, propidium iodide staining, vector control cells; assay type: cell-based; settings: human, vector control cells (low Bcl-2 expression), read-out: percent of non-viable cells
Experimental: (§2) This provides apparent evidence for a functional link between PBR and Bcl-2. […] Cell viability was determined by propidium iodide staining cells and quantifying fluorescence with an Fmax™ plate reader (Molecular Devices, Sunnyvale, Calif.) according to the manufacturer's instructions.

[4] = PK-11195 induced cell death, propidium iodide staining, S11 cells; assay type: cell-based; settings: human, read-out: percent of non-viable cells
Experimental: as §2

[5] = system: S11 mitochondria; experiment: cytochrome C release upon calcium induced permeability transition; assay type: cell-based
[6] = biological target: T2, PBzR (Homo sapiens, UniProt P30536); experiment: displacement of [3H]PK-11195 binding to the S11 PBzR overexpressing clone; settings: read-out: IC50, displacement of [3H]PK-11195; 6 μg S11 protein per data point
T2 construct: expressed in transfected cells; host or cells: S11, clonal SH-SY5Y-derived stably transfected PBzR-overexpressing line
T2 sequence (P30536 whole entry): as above
Experimental: Additional experiments were performed to further characterize the binding of ligand to PBzR.
The S11 cell line was used as a source of PBzR.

[7] = system: IPBR-1 cells; experiment: PBzR ligand effect on doxorubicin induced caspase activation in IPBR-1 cells; assay type: cell-based; settings: induced but not uninduced IPBR-1 cells, dose-dependent
Source text: Accordingly, the present invention provides the unexpected finding that peripheral benzodiazepine ligands may be distinguished on the basis of whether they preferentially alter apoptosis, and whether they preferentially alter a mitochondrial function. Data also indicate that benzodiazepine-related PBR ligands can act as effective anti-apoptotic agents, which may be of benefit in the treatment of certain neuropathologies and/or in chronic inflammatory conditions.

[8] = system: S11 cells and vector control cells; experiment: caspase activation (DEVD cleavage) in S11 and vector control cells; assay type: cell-based
Experimental: as §1
Etoposide and ceramide treatments were as described above.

For `Nc1c[n+](N2CCOCC2)no1.[Cl-]` [SIN-1, 3-morpholinosydnonimine, HCl], the “caspase activation, induced versus uninduced cells” value ([1]; IPBR-1, 100-400 μM) was “resistance to caspase activation”.
For `CCC(C)N(C)C(=O)c1cc2ccccc2c(-c2ccccc2Cl)n1` (stereo not drawn) [PK-11195, 1-(2-chlorophenyl)-N-methyl-N-(1-methylpropyl)-3-isoquinolinecarboxamide], the “Bmax (pmol/mg)” value ([2]; Jurkat Vector) was “Not detected”, the “Bmax” value ([2]; S11) was 43 pmol/mg and the “receptor concentration from saturation binding curves” value ([2]; S11 SY5Y clone / pooled over-expressors as worded) was 25 pmol/mg. For the same compound, the “Bmax” value ([2]; SH-SY5Y Vector) was 1.8 pmol/mg, the “binding maximum (BMAX)” value ([2]; native SY5Y cells) was 1.8 pmol/mg and the “binding maximum (BMAX)” value ([2]; stable PBR expressing SY5Y cells) was 25 ± 1.5 pmol/mg. For the same compound, the cytotoxicity at 24 h, 20 µM ([3]; 20 μM) was roughly 10%, the cytotoxicity at 24 h, 100 µM ([3]; 100 μM) was roughly 40% and the cytotoxicity at 24 h, 100 µM [4] was less than 20%. For the same compound, the “release of cytochrome C from mitochondria” value [5] was “caused a release of cytochrome C”.
With `CN1C(=O)CN=C(c2ccc(Cl)cc2)c2cc(Cl)ccc21` [RO 05-4864, 4′chlorodiazepam] the IC50 [6] was 36.8 nM and the “effect on doxorubicin induced activation of caspase” value [7] was “protective effect against the doxorubicin induced activation of caspase”.
With `COc1cc([C@@H]2c3cc4c(cc3[C@@H](O[C@@H]3O[C@@H]5CO[C@@H](C)O[C@H]5[C@H](O)[C@H]3O)[C@H]3COC(=O)[C@H]23)OCO4)cc(OC)c1O` [etoposide] the “caspase activation, S11 cells versus vector controls” value ([8]; etoposide 2-6 μM, six hours) was “caspase activation occurred at a higher rate in S11 cells than in vector controls; also recorded: greater activation of caspase in S11 cells than in vector controls”.
In the case of `CCCCCCCCCCCCC/C=C/[C@@H](O)[C@H](CO)NC(C)=O` [C2-ceramide], the “caspase activation, S11 cells versus vector controls” value ([8]; concentrations of 80 and 100 μM) is reported as “much greater activation of caspase in vector control cells than in the S11 cells” and the “caspase activation, induced versus uninduced cells” value ([1]; oligoclonal tetracycline-inducible line, 80 μM, 8 hrs) is reported as “resistance to ceramide-stimulated caspase activation”.
For `C/C=C(/C)C(=O)O[C@H]1C(C)=C2[C@H]([C@@H]1OC(=O)CCCCCCC)[C@@](C)(OC(C)=O)C[C@H](OC(=O)CCC)[C@@]1(O)[C@H]2OC(=O)[C@@]1(C)O` [thapsigargin], the “caspase activation, induced versus uninduced cells” value ([1]; tetracycline-induced IPBR-1) was “no reduction in caspase activation”.
With `COc1cccc2c1C(=O)c1c(O)c3c(c(O)c1C2=O)C[C@@](O)(C(=O)CO)C[C@@H]3O[C@H]1C[C@H](N)[C@H](O)[C@H](C)O1` [doxorubicin] the “caspase activation, induced versus uninduced cells” value ([1]; IPBR-1, 4 μM, 8 hrs) was “moderated the degree of caspase activation”.
